Results published in article PMC8137473, “Preclinical trial of a MAP4K4 inhibitor to reduce infarct size in the pig: does cardioprotection in human stem cell-derived myocytes predict success in large mammals?” (Basic Research in Cardiology, 2021).
pEC50, pIC50: −log10 of the molar value. Several values for one entry are separate records, joined by “and”; a condition that tells them apart may be missing. Equal values may be shown once.

Key:
pigs = settings: cited from earlier work; for cardioprotection findings in pigs: 16 (TRO40303), 5, 20 (cyclosporine), 21, 29 (cariporide)
humans = settings: cited from earlier work; for cardioprotection in human trials: 16 (TRO40303), 5, 20 (cyclosporine), 21, 29 (cariporide)
[1] = tested on: engineered human heart tissue; set-up: method as in PMID 30853557; settings: cited from earlier work
376 kinases = tested on: 376 kinases; set-up: method as in PMID 30853557; settings: cited from earlier work
[2] = tested on: mouse myocardial infarction; set-up: method as in PMID 30853557; settings: mice, even given an hour after reperfusion; cited from earlier work
[3] = set-up: method as in PMID 30853557; settings: mice, twice daily oral dosing of DMX-5804; cited from earlier work
hPSC-CMs = tested on: hPSC-CMs; set-up: method as in PMID 30853557; settings: cited from earlier work
MAP4K4 = MAP4K4 (Homo sapiens, UniProt O95819); test: cell-free biochemical assay, MAP4K4 inhibition; settings: cell-free biochemical assays; read-out: IC50 against MAP4K4
Source text: DMX-10001, a rapidly hydrolyzed phosphate pro-drug of DMX-5804, was produced by Domainex Ltd, by a modification of the latter’s synthetic route, attaching a hydrolysable phosphate group via a linker to the core of DMX-5804 (Fig. 1a). This removes a key hydrogen bonding group and prevents DMX-10001 from binding to the hinge region of the MAP4K4 kinase domain. […] Furthermore, this modest value is likely driven by minute levels of DMX-5804 either present in the sample or generated during by hydrolysis during the assay.

[4] = plasma levels of DMX-5804 in swine during DMX-10001 infusion (efficacy study); format: in vivo, pig
Procedure: Compound concentrations after dosing were measured as follows by liquid chromatography–mass spectrometry (Pharmidex, London, UK). To 50 µL aliquots of plasma was added 200 µL of internal standard solution (methanol containing 500 ng/mL tolbutamide). Samples were then mixed (150 rpm, 20 min) and centrifuged (3000 rpm, 15 min). 75 µL of the resulting supernatant was added to 75 µL 10 mM ammonium acetate + 0.5% ammonia) and mixed (450 rpm, 15 min). Calibration standards covering the expected concentration range were prepared by spiking analyte into control matrix, with extraction and analysis in the same way as the plasma samples.
Analysis was done by liquid chromatography–mass spectrometry using a Shimadzu Nexera X2 ultra-high-pressure liquid chromatography system coupled to a Shimadzu LCMS 8060 triple quadruple mass spectrometer (Shimadzu, Milton Keynes, UK) with Waters Acquity BEH C18 (50 × 2.1)mm, 1.7 µm column (Waters, Elstree, UK) and mobile phase components 10 mM ammonium acetate + 0.5% ammonia (A) and methanol + 0.5% ammmonia (B). Gradient was 0–0.5 min 30% B; 0.5 to 2.5 min increase to 80% B; 2.5–2.6 min increase to 98% B; 2.6–3 min 98% B; 3–3.1 min decrease to 30% B; 3.1–3.5 min 30% B. Flow rate was 0.4 mL/min. Injection volume was typically 5 µL. Detection was by multiple reaction monitoring, DMX-5804 361.9 > 304.1 (positive ion), DMX-10001 470.1 > 258.0 (negative ion), and tolbutamide 271.0 > 91.0 (positive ion). Retention times were DMX-5804 2.9 min, DMX-10001 2.1 min, and tolbutamide 1.8 min. Data processing was done by Shimadzu LabSolutions Software (Shimadzu, Milton Keynes, UK).
Results were corrected for plasma protein binding by rapid equilibrium dialysis to calculate free drug levels, and were subjected to iterative computer modeling (XenoGesis, Alderley Park, UK) using Phoenix64 WinNonlin (Certara, Princeton, NJ), to devise the infusion protocol.
At several time-points (see Fig. 2), blood samples were taken in lithium-heparin-coated tubes (BD, Plymouth, UK) to analyze plasma levels of DMX-10001 (pro-drug) and DMX-5804 (active compound) and in EDTA-coated tubes (BD, Plymouth, UK) to measure heart-type fatty acid binding protein (hFABP). All blood samples were kept on ice immediately after withdrawal and were centrifuged for 10 min at 3000 rpm and 4 °C within 6 h. Plasma was aliquoted and cryopreserved at − 80 °C until analysis. Levels of DMX-10001 and DMX-5804 were determined by liquid chromatography–mass spectrometry (Pharmidex, London, UK). Porcine hFABP was analyzed as described: plasma samples were thawed on ice, diluted 10 × using the standard diluent provided with the kit, and analyzed by enzyme-linked immunosorbent assays according to the manufacturer’s instructions (Life Diagnostics, West Chester, PA). Absorbance was measured at 450 nm with a microplate photometer (Multiskan EX, Thermo Scientific, Etten-Leur, The Netherlands).

aqueous solubility = format: physicochemical
Procedure: The chemical structures of DMX-5804 and DMX-10001 are compared in Fig. 1a, highlighting the phosphate moiety of the pro-drug. The aqueous solubility of DMX-10001 was > 400-fold greater than that of DMX-5804, allowing it to be infused i.v. without prohibitive fluid volumes. Cleavage to DMX-5804 was detectable in rats within 5 min and largely complete within 60 min (Fig. 1b). Data from i.v. infusion at a range of dose levels in the pig were simultaneously fit to a three-compartment pharmacokinetic model. Plasma protein binding in pig was used to determine free drug levels (not shown). Various dosing regimens were simulated to avoid an initial spike in DMX-5804 whilst rapidly achieving the efficacious drug levels seen in mice after oral gavage (Fig. 1c).

[5] = pigs, pro-drug DMX-10001 infusion (60 mg/kg/h 0.5 h + 17 mg/kg/h 23.5 h)

Chain of MAP4K4 (O95819 whole entry, species assumed, the tested form may be a part): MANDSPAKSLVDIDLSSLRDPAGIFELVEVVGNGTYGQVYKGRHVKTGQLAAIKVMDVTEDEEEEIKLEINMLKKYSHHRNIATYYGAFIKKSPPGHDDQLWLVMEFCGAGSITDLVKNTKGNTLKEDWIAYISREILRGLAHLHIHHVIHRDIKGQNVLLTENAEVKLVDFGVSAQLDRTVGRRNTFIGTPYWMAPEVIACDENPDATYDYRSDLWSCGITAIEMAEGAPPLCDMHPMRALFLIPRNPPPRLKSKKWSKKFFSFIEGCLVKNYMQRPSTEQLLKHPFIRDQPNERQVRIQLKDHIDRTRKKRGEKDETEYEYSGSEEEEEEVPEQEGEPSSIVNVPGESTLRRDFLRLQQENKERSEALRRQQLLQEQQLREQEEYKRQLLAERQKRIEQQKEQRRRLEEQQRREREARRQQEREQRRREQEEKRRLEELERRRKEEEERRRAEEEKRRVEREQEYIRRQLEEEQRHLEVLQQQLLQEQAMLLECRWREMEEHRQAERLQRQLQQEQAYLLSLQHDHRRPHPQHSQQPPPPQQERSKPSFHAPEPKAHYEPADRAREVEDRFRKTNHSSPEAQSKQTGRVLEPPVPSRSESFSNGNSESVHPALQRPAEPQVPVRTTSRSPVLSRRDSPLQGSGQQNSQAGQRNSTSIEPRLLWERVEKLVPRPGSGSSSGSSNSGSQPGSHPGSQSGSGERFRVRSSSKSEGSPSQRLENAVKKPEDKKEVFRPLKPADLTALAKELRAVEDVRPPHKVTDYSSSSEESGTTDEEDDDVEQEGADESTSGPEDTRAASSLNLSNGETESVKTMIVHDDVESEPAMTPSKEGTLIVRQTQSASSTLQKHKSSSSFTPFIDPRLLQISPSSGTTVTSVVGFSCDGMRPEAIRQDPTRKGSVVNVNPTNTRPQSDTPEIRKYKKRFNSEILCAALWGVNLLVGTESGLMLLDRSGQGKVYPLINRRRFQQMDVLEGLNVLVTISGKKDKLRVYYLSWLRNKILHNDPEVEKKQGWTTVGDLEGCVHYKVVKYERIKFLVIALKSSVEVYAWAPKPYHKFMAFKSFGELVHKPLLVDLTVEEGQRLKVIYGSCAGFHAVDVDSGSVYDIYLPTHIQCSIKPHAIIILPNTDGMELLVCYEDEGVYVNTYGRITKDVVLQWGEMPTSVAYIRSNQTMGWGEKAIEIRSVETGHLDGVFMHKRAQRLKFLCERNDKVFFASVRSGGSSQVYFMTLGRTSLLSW

For `Nc1ncnc2c1ncn2[C@@H]1O[C@H](CO)[C@@H](O)[C@H]1O` [adenosine], the protection in swine (pigs; bolus) is listed as “gave no protection”.
For liraglutide, the results in pigs (pigs) is given as “negative results” and the “myocardial salvage in humans” value (humans) is given as “improved myocardial salvage”.
In the case of `CC(C)c1ccc(C(=O)NC(=N)N)cc1S(C)(=O)=O` [cariporide], the “cardioprotection findings in pigs” value (pigs) is given as “weak or negative findings” and the “cardioprotection in human trials” value (humans) is given as “failures of cardioprotection”.
In the case of `CC(C)CCC[C@@H](C)[C@H]1CC[C@H]2[C@@H]3CC/C(=N\O)[C@](C)(CCCO)[C@H]3CC[C@]12C` [TRO40303], the “cardioprotection findings in pigs” value (pigs) is listed as “weak or negative findings” and the “cardioprotection in human trials” value (humans) is listed as “failures of cardioprotection”.
For `COCCOc1ccc(-c2cn(-c3ccccc3)c3nc[nH]c(=O)c23)cc1` [DMX-5804], the “cell death in engineered human heart tissue” value [1] is given as “blocked cell death”, the “selectivity among 376 kinases” value (376 kinases) is given as “interfering potently just with MINK1/MAP4K6 and TNIK/MAP4K7” and the “reduction of infarct size (IS)” value [2] is given as 50% and > 50%. For the same molecule, the “free AUC0–22 of DMX-5804” value [3] was 2,200 h.nM, the “death from oxidative stress in hPSC-CMs” value (hPSC-CMs) was “suppressed death from oxidative stress” and the pEC50 (hPSC-CMs; vCor.4U cells treated with 400 μM H2O2, read-out: EC50 for reducing cell death) was 6.30. The pIC50 (MAP4K4) was 8.52, the “target level of DMX-5804, based on successful reduction of IS in mice” value ([4]; after infusion with DMX-10001) was “achieved in all animals” and the “levels of DMX-5804 generated in pigs relative to those in mice” value ([4]; at the corresponding times after injury) was “at least tenfold”. The “free AUC0-24 of DMX-5804” value [4, 5] was 27,900 h.nM, the “free Cav of DMX-5804” value [4, 5] was 1,160 nM and the “DMX-5804 concentrations relative to the levels that rescued hPSC-CMs and reduced IS in mice” value ([4]; swine, all times tested beginning 30 min after the start of DMX-10001 infusion) was “> fivefold”. For the same molecule, the aqueous solubility (aqueous solubility) was “inadequate for i.v. delivery”.
